The results in this text go back to US11351399B2, “Combined local delivery of therapeutic agents using interventional devices and radiation” (The University of North Carolina At Chapel Hill, priority 2014, dated 2022).

Usually AUC stands for concentration integrated over time.

The structures appear in SMILES notation. Several values for one entry are separate records, joined by “and”; a condition that tells them apart may be missing. Identical values can stand only once. Like-named read-outs stand apart in the source and are kept apart here.

Data set [1] is described as follows: biodistribution/PK of device and/or IV cisplatin in orthotopic SUM149 cell xenograft model. Type of data set: in vivo, mice. Here is the method:
Device delivery of cisplatin was evaluated using an orthotopic SUM149 cell xenograft model of breast cancer. In addition to studying iontophoretic delivery as compared to IV delivery of the cisplatin, concurrent device and IV delivery was added as an arm of the study based upon the low systemic exposure of cisplatin. In the study, a single treatment was administered after adhesion of the device to the skin above the tumor.

Data set [2] can be described thus: ex vivo cisplatin transport into human skin, modified Franz diffusion cell. The note with it: 1 mA for 25 minutes, ~1 mm thick skin, ICP-MS.
Description: Ex vivo drug transport studies were also conducted by transporting cisplatin into ˜1 mm thick human skin and were evaluated using a modified Franz diffusion cell with the test drug transport device directly above the skin instead of a donor chamber. During the testing, 1 or 0 mA of current was applied for 25 minutes, and the skin and solution were snap frozen, processed, and analyzed by inductively coupled plasma-mass spectrometry (ICP-MS).
Data set [3] relates to SUM149 cell xenograft orthotopic breast cancer model. Type of data set: in vivo, mice. Particulars: for median lifespan: control median 49 days; for tumor growth inhibition: weekly, four doses. Here is the method: (§1) Iontophoretic delivery of cisplatin in was tested in both SUM149 cell xenograft and T11 syngeneic orthotopic breast cancer models. For both models, the efficacies of device cisplatin, IV cisplatin, device+IV cisplatin, device saline, and IV saline were compared.
(§2) For the SUM149 xenograft model, once the tumors reached ˜50 mm^3, the mice were treated with device cisplatin, IV cisplatin (5 mg/kg), device+IV cisplatin (5 mg/kg), device saline, or IV saline every week for four total doses, as shown in FIGS. 35A and 35B. […] For the T11 model, mice received two doses of device cisplatin, IV cisplatin (5 mg/kg), device+IV cisplatin (5 mg/kg), device saline, or IV saline every week for two total doses beginning five days after inoculation (˜20 mm^3), as shown in FIGS. 35C and 35D. The number of treatments varied between tumor models because of the differences in tolerability of treatments.

Data set [4] relates to T11 syngeneic orthotopic breast cancer model. As to the kind of experiment: tumor treatment efficacy of cisplatin, T11 syngeneic model. It is filed as in vivo, mice. Particulars: for median lifespan: control median 10 days; for tumor growth inhibition: two doses. Here is the method:
as §1, §2

For data set [5], the system named is T11 syngeneic orthotopic breast cancer models. As to the kind of experiment: combined cisplatin and radiation efficacy, T11 syngeneic model. It is filed as in vivo, mice. The note with it: single dose. Here is the method:
Using T11 syngeneic orthotopic breast cancer models, radiotherapy was tested as an alternative and/or additional treatment method to device and IV cisplatin to compare the therapeutic effects of the various treatments. Mice received a single dose of radiation (10 Gy), device cisplatin, device cisplatin+radiation (10 Gy), IV cisplatin (5 mg/kg), IV cisplatin+radiation (10 Gy), device+IV cisplatin (5 mg/kg), and device cisplatin+IV cisplatin (5 mg/kg)+radiation (10 Gy) five days after inoculation (˜20 mm^3).

Data set [6] deals with orthotopic PDX model of pancreatic cancer. Particulars: for mice with tumor regression: twice a week up to 7 weeks.
Description: Iontophoretic devices were surgically implanted into orthotopic PDX tumors when their size reached ˜200 mm^3, as determined by high resolution 3D ultrasound. Mice were treated twice a week for up to 7 weeks with device gemcitabine (20 mg/mL), device saline (0.9% NaCl), IV Gemcitabine (80 mg/kg), or IV saline. Tumor volumes were measured by volume displacement after completion of the scheduled treatment due to the interference of implanted devices with ultrasound imaging.
A short description of another data set: in vivo. Particulars: mouse. An excerpt:
Orthotopic PDX models of pancreatic cancer were used to characterize iontophoretic delivery of gemcitabine with respect to pharmacokinetics (PK).
In the present example, IV delivery of gemcitabine was compared to local iontophoretic delivery of gemcitabine.

The nature of data set [7]: PK study of device versus IV gemcitabine in non-tumor bearing dogs. It is filed as in vivo. Here is the method:
Since there was no readily available large animal model for pancreatic cancer, a representative non-tumor bearing large animal model (Dogs) for humans was used. A laparotomy was performed and iontophoretic devices (shown in FIG. 41) were sutured directly onto the pancreas. A constant current of 10 mA was applied for 60 minutes using either 40 or 10 mg/mL gemcitabine (n=5, per group). […] For the IV treatment arm (n=4, per group), clinical protocol was followed for gemcitabine administration, which was an infusion of a 1 g/m^2 dose for thirty minutes, and the animal was euthanized 60 minutes after the start of the infusion. The plasma was sampled at 15 minute increments before, during, and after therapy. After therapy, the tissues were removed, flash-frozen, and analyzed by UV-HPLC.

Data set [8] can be described thus: ex vivo drug transport in pancreatic cancer PDX tumors. Particulars: 2 mA for 10 minutes, device sutured onto ex vivo PDX tumor, UV-HPLC. It is filed as in vitro ADME. Here is the method: Ex vivo drug transport studies were conducted using pancreatic cancer patient-derived xenografts (PDXs). Test drug transport devices were sutured onto the ex vivo PDX tumors and a counter electrode was placed on the contralateral side of the tumor. 2 or 0 mA of current was applied for 10 minutes and the tumors were subsequently snap frozen, processed, and analyzed by UV-high performance liquid chromatography (HPLC).

Where [9] appears, read: device+IV cisplatin (5 mg/kg) + radiation (10 Gy).

For the molecule `[NH2][Pt]([NH2])([Cl])[Cl]` [cisplatin], the “Platinum Plasma Exposure (AUC)” value was determined as 10650 ng·h/mL in [1] (Device + IV (5 mg/kg) Delivery); 1990 ng·h/mL in data set [1] (Device Delivery, single treatment); 9910 ng·h/mL in data set [1] (IV (5 mg/kg) Delivery). In addition, in data set [2], the “fold increase in platinum transported into the human skin versus passive diffusion (0 mA)” value was 11.4 fold. Also, the median lifespan is given as 68 days in data set [3] (IV cisplatin (5 mg/kg)); 60 days in data set [3] (device cisplatin); > 100 days in data set [3] (device+IV cisplatin (5 mg/kg)); 22 days in [4] (IV cisplatin (5 mg/kg)); 20 days in [4] (device cisplatin); 32 days in [4] (device+IV cisplatin (5 mg/kg)). Further, in data set [3] (device cisplatin, tumors post treatment), the “tumor γH2AX staining, device cisplatin versus IV cisplatin” value is reported as “almost equivalent γH2AX staining”. Moreover, the tumor growth inhibition result is “significant tumor growth inhibition” in data set [3] (device cisplatin, similar to IV cisplatin until day 42); “significant tumor growth inhibition” in data set [3] (device+IV cisplatin (5 mg/kg)); “significant tumor growth inhibition” in data set [4] (device cisplatin, similar to IV cisplatin until day 9); “significant tumor growth inhibition” in data set [4] (device+IV cisplatin (5 mg/kg)). For the same molecule, the “tumor γH2AX staining” value in data set [3] (device+IV cisplatin, tumors post treatment) is given as “greater γH2AX staining”. Moreover, the “skin of the mice after device treatment” value in data set [3] (mouse, in vivo) is “no scarring or deformation”. For the same molecule, the “tolerability by kidney γH2AX staining compared to IV cisplatin and device+IV cisplatin” value in [3] (mouse, in vivo) is listed as “better tolerated”. Further, the “survival on addition of radiation” value in data set [5] (IV cisplatin (5 mg/kg) + radiation (10 Gy)), in data set [5] (device cisplatin + radiation (10 Gy)) and in data set [5] (setting [9]) was “significantly improved survival” in each case. Moreover, the “tumor growth inhibition and survival versus other groups” value in data set [5] (setting [9]) is recorded as “outperformed all other treatment groups”.
On to `Nc1ccn([C@@H]2O[C@H](CO)[C@@H](O)C2(F)F)c(=O)n1` [gemcitabine], for which the results for the “mean log2-fold change in tumor volume” value in [6] (IV gemcitabine (80 mg/kg)) and in [6] (device gemcitabine (20 mg/mL)) were 1.1 and −0.8, respectively. Also, the “mice with tumor regression” value in data set [6] (IV gemcitabine (80 mg/kg)) is 0/7; in data set [6] (device gemcitabine (20 mg/mL), 52-day study) it was 7 out of 7 and 7/7. The “Ki-67 staining of tumors post treatment versus IV gemcitabine and saline arms” value in data set [6] (device gemcitabine) was “decrease in Ki-67 staining”. The “tolerability (body weight gain, alanine transaminase, lipase) compared to IV gemcitabine” value in data set [6] (mouse, in vivo) is on record as “better tolerated”. Also, the gemcitabine in plasma entry in the data set “in vivo” is reported as “no detectable gemcitabine”; in data set [7] (IV infusion 1 g/m^2 for thirty minutes), “detected in the plasma of all dogs”. Also, the “gemcitabine tumor AUC” value was found to be 348070 ng·h/mL in the data set “in vivo” and 30780 ng·h/mL in “in vivo” (iv, 80 mg/kg). The “distance away from the devices at which gemcitabine was detected” value in “in vivo” (0 h) was 4.7 mm; in “in vivo” (3 h), 3 mm; in “in vivo” (6 h), 3 mm. For the same molecule, in the data set “in vivo” (iv, 80 mg/kg), the AUC worked out at 65200 ng·h/mL. In addition, the “distance of gemcitabine transport away from the electrode” value came out at 6.3 mm in data set [7] (device, 10 mg/mL) and 9.6 mm in data set [7] (device, 40 mg/mL). Moreover, the “fold increase in concentration of gemcitabine in the normal canine pancreas compared to IV administration” value came to 2.0 fold in data set [7] (device, 10 mg/mL) and 7.1 fold in data set [7] (device, 40 mg/mL). Also, in data set [7] (device, 10 mg/mL, 10 mA for 60 minutes), the drug in plasma entry is reported as “no drug detected”. Besides, the “dogs with detectable levels of gemcitabine in plasma” value in [7] (device, 40 mg/mL, 10 mA for 60 minutes) is given as 2 out of 5. For the same molecule, the “fold lower plasma gemcitabine levels than the IV treatment” value in data set [7] (device, 40 mg/mL, dogs with detectable levels) is “at least 25 fold”. Further, the “fold increase in drug transport versus passive diffusion control (0 mA)” value in data set [8] came to 9.1 fold.
